From patent US20240182456A1, “2-((4-((S)-2-(4-CHLORO-2-FLUOROPHENYL)-2-METHYLBENZO[D][1,3]DIOXOL-4-YL)PIPERIDIN-1-YL)METHYL)-1-(((S)-OXETAN-2-YL)METHYL)-1H-IMIDAZOLE DERIVATIVES AS ACTIVATORS OF THE GLP1 RECEPTOR FOR THE TREATMENT OF OBESITY” (Novartis AG, priority 2021, published 2024)
Where two headings read alike, the source gives them in different places.

Legend:
human GLP1R (hGLP1R) = human GLP1R (hGLP1R) (Homo sapiens, UniProt P43220); experiment: Human GLP1R cAMP agonist assay (GloSensor); type: cell-based; settings: for Emax: read-out: Emax mean; for EC50: intracellular cAMP, mean n=3 where SEM is given
Chain of human GLP1R (hGLP1R) (P43220 24-463): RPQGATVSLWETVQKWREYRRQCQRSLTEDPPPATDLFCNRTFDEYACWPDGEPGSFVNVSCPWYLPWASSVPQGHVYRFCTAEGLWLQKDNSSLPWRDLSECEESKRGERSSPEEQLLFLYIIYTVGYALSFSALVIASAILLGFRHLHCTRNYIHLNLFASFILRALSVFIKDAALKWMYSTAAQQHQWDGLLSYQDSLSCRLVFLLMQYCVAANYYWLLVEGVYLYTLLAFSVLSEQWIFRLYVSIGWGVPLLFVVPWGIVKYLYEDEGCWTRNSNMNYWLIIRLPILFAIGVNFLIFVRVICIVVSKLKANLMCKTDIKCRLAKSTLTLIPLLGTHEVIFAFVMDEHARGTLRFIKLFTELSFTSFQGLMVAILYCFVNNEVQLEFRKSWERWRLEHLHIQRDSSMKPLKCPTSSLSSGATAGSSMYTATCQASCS
Method: (§1) Compounds 1 to 31 were tested in the following cellular assays that measure the intracellular cAMP concentration, beta-arrestin recruitment and receptor internalization. The cAMP is generated by the activation of GLP1R. The cAMP data obtained is shown in Table 1 (where S.E.M. is included, mean n=3 independent experiments+/−S.E.M). Beta-arrestin is recruited upon activation of GLP1R and the data obtained are shown in Table 2 (mean n=2 independent experiments, +/−S.D). The extent to which the GLP1R is internalized into the cell and away from the plasma membrane following activation is also shown in Table 2 (mean n=2 independent experiments, +/−S.D). EC50 for each assay is defined as the concentration of the compound that leads to half of the maximum response (after baseline correction). Emax is defined as the maximum response observed for the test compound, normalized to the maximum response observed for the endogenous ligand (GLP1(7-36)) to GLP1R.
Human GLP1R cAMP Agonist Assay
The agonist activity of compounds was determined using the GloSensor™ cAMP Assay (Promega Corp.), which measures changes in the intracellular concentration of cAMP after ligand activation of GPCRs. The assay uses a biosensor encoded by pGloSensor™-22F cAMP plasmid (Promega, cat #E2301) with cAMP binding domains fused to a mutant form of Photinus pyralis luciferase. Binding to cAMP causes conformational changes that promote large increases in light output, which can be measured by a luminescence detector. HEK293-SNAP-hGLP1R-GloSensor cells stably overexpressing the human GLP1 receptor (hGLP1R) and pGloSensor™-22F were seeded in white 384-well poly-D-Lysine coated plates (Greiner Bio One, cat #781945) in CO2-independent media (Gibco cat #18045-088 with 1.0% FBS, 2 mM L-glutamine, penicillin and streptomycin) and incubated overnight at 37° C., 5% CO2 with humidity. The assay was started the following morning by adding an equal volume of CO2-independent media containing 4% v/v dilution of the GloSensor substrate (Promega, cat #E1291) to all wells. The cell plate was incubated at rt for 2 h in the dark. The Biomek 7 (Beckman Coulter) instrument was used for the liquid handling steps. To generate duplicate dose response curves, 3-fold serially diluted compounds were added in to the cell assay plate to a final volume of 60 μL with final concentrations ranging from 30 μM through 0.06 μM in CO2-independent media containing 0.1% BSA, 0.5 mM IBMX and 0.4% DMSO. In the same plate and assay buffer as the tested compounds, were EC100 control wells containing GLP1 (7-36) peptide (Bachem, cat #H-6795) at a final concentration of 2 nM and also EC0 control wells containing no peptide. This plate was incubated at rt in the dark for 12 min after adding the compounds to the cells. Luminescence was then measured with an Envision 2104 Multilabel reader with “TRF Light Unit, 337 nm” (PerkinElmer) using the Ultra-Sensitive protocol setting “384-well US luminescence detector” with the 384-well luminescence aperture, 0.1 seconds per well. cAMP activity was calculated as percent of the GLP1 (7-36) EC100 control wells: [(sample signal−mean EC0 signal)/(mean EC100 of GLP1 (7-36) signal−mean EC0 signal)}*100. Curve fitting for EC50 determinations was performed in the Helios module of the software package DAVID. The 4-parameter logistic model, Hill slope was used: y=Ainf+(A0−Ainf)/(1+(x/AC50)^Hill Slope) where y is the functional response; x is the compound concentration; A0 is the minimum value (at 0 dose); Ainf is the maximum value (at infinite dose); AC50 corresponds to the point of inflection (i.e. the point on the sigmoid shaped curve halfway between A0 and Ainf). The EC50 value was represented by the AC50 value calculated from Helios in μM. Emax is the maximal activity detected within the concentration range, derived from the fitted curve. […]

human GLP1R = human GLP1R (Homo sapiens, UniProt P43220); experiment: Human GLP1R DERET internalization assay; type: cell-based; settings: HEK293-SNAP-hGLP1R-GloSensor cells; for EC50: mean n=2; for Emax: relative to GLP1(7-36)
Chain of human GLP1R (P43220 24-463): as above
Method: as §1
The extent to which agonists internalize the human GLP1R was determined based on an optimized version of a RealTime FRET-based ‘DERET’ (Dissociation Enhanced Resonance Energy Transfer) assay. The technology relies on labeling of the SNAP-tagged GPCR with a SNAP-Lumi-Terbium (donor fluorophore, Cisbio, cat #SSNPTBD). The compounds are incubated with the cells over-expressing the GPCR of interest in the presence of an excess of fluorescein (acceptor fluorophore). When the GPCR is on the cell surface, the donor signal is quenched by the acceptor and the donor/acceptor ratio is low. As the GPCR internalizes, the donor signal is no longer quenched, and the acceptor is no longer excited so the donor/acceptor ratio increases.
HEK293-SNAP-hGLP1R-GloSensor cells (stably overexpressing SNAP-tagged hGLP1R) were seeded overnight in white 384-well poly-D-Lysine coated plates (Greiner Bio One, cat #781945) in regular DMEM growth medium (Gibco, cat #11965-092, 10% heat-inactivated FBS, 10 mM HEPES, 1× penicillin/streptomycin, 0.5 mg/mL geneticin (Gibco, cat #10131-035) and 0.25 mg/mL hygromycin B (Invitrogen, cat #10687010). On the assay day, cell medium was removed and 100 nM SNAP-Lumi-Tb reagent was added in Opti-MEM solution. The cells were incubated at 37° C. for 1 h. Cells were washed using a plate washer in assay buffer [1×HBSS (10× Gibco, cat #14065-056), 20 mM Hepes (Gibco, cat #15630-080), 1 mM CaCl2 (Fluka, cat #21114-1L), 1 mM MgCl2 (Ambion, cat #AM9530G) pH7.4], and 20 μL buffer with 0.1% BSA was added to each well. After leaving cells to equilibrate for ˜15 min at 37° C., 10 μL of Fluorescein (sodium salt, Sigma, cat #F6377, diluted in buffer) was added at 25 μM final concentration. To generate triplicate dose response curves, compounds were serially diluted 3-fold in assay buffer, then added to the cell assay plate to a final volume of 40 μL and final top concentrations starting at 30 μM. In the same plate and assay buffer as the tested compounds, a GLP1 (7-36) peptide (Bachem, cat #H-6795) control curve was included at a final top concentration of 1 μM in order to establish EC100. EC0 wells with buffer only were also included. The plate FRET fluorescence was measured immediately using a Perkin Elmer Envision with LANCE/DELFIA D400 single mirror, excitation filter X320, and emission filters M615_203 (donor emission) and M515 (acceptor emission), and then measured every 30 min. […] Plates were kept at 37° C. between reads. Data was expressed as the ratio of donor/acceptor emissions using Microsoft Excel and plotted in GraphPad Prism. In order to determine EC50 and Emax for internalization, data was calculated and expressed as percent of the GLP1 (7-36) EC100 control wells: [(sample signal−mean EC0 signal)/(mean EC100 of GLP1 (7-36) signal−mean EC0 signal)]*100 using Microsoft Excel. Curve fitting for EC50 determinations was performed using GraphPad Prism. The 4-parameter logistic model, Hill slope was used:
Y=Bottom+(Top−Bottom)/(1+10^((Log EC50−X)*Hill Slope)), […]

[1] = HEK293-SNAP-hGLP1R-GloSensor cells, cAMP, normalized to GLP1(7-36) maximum response
[2] = HEK293-SNAP-hGLP1R-GloSensor cells

| Compound | Emax (human GLP1R (hGLP1R); [1]) | EC50 (human GLP1R (hGLP1R); [2]) | EC50 (human GLP1R) | Emax (human GLP1R) | Emax (human GLP1R (hGLP1R)) |
| --- | --- | --- | --- | --- | --- |
| Cc1c(-c2nc(=O)o[nH]2)nc(CN2CCC(c3cccc4c3O[C@@](C)(c3ccc(Cl)cc3F)O4)CC2)n1C[C@@H]1CCO1 [Compound C-21, 3-(2-((4-((S)-2-(4-chloro-2-fluorophenyl)-2-methylbenzo[d][1,3]dioxol-4-yl)piperidin-1-yl)methyl)-5-methyl-1-(((S)-oxetan-2-yl)methyl)-1H-imidazol-4-yl)-1,2,4-oxadiazol-5(2H)-one] | 104% | 0.297 nM | 1790 nM | 13% | – |
| Cc1nc(CN2CCC(c3cccc4c3O[C@@](C)(c3ccc(Cl)cc3F)O4)CC2)n(C[C@@H]2CCO2)c1-c1nc(=O)o[nH]1 [Compound C-20, 3-(2-((4-((S)-2-(4-chloro-2-fluorophenyl)-2-methylbenzo[d][1,3]dioxol-4-yl)piperidin-1-yl)methyl)-4-methyl-1-(((S)-oxetan-2-yl)methyl)-1H-imidazol-5-yl)-1,2,4-oxadiazol-5(2H)-one] | – | 0.202 nM | > 30000 nM | 6% | 104% |
| Cc1nc(CN2CCC(c3cccc4c3O[C@@](C)(c3ccc(Cl)cc3F)O4)CC2)n(C[C@@H]2CCO2)c1/C=C(/F)C(=O)O [Compound C-19a, (E)-3-(2-((4-((S)-2-(4-chloro-2-fluorophenyl)-2-methylbenzo[d][1,3]dioxol-4-yl)piperidin-1-yl)methyl)-4-methyl-1-(((S)-oxetan-2-yl)methyl)-1H-imidazol-5-yl)-2-fluoroacrylic acid] | 110% | 0.0137 nM | 86 nM | 27% | – |
| C[C@]1(c2ccc(Cl)cc2F)Oc2cccc(C3CCN(Cc4nc(C(F)(F)F)c(-c5nc(=O)o[nH]5)n4C[C@@H]4CCO4)CC3)c2O1 [Compound C-26, 3-(2-((4-((S)-2-(4-chloro-2-fluorophenyl)-2-methylbenzo[d][1,3]dioxol-4-yl)piperidin-1-yl)methyl)-1-(((S)-oxetan-2-yl)methyl)-4-(trifluoromethyl)-1H-imidazol-5-yl)-1,2,4-oxadiazol-5(2H)-one] | – | 0.922 nM | > 30000 nM | -6% | 99% |
| C[C@]1(c2ccc(Cl)cc2F)Oc2cccc(C3CCN(Cc4nc(F)c(/C=C/C(=O)O)n4C[C@@H]4CCO4)CC3)c2O1 [Compound C-18, (E)-3-(2-((4-((S)-2-(4-chloro-2-fluorophenyl)-2-methylbenzo[d][1,3]dioxol-4-yl)piperidin-1-yl)methyl)-4-fluoro-1-(((S)-oxetan-2-yl)methyl)-1H-imidazol-5-yl)acrylic acid] | 116% | 0.0253 nM | 197 nM | 90% | – |
| Cc1c(-c2cccc(C(=O)O)c2)nc(CN2CCC(c3cccc4c3O[C@@](C)(c3ccc(Cl)cc3F)O4)CC2)n1C[C@@H]1CCO1 [Compound C-10, 3-(2-((4-((S)-2-(4-chloro-2-fluorophenyl)-2-methylbenzo[d][1,3]dioxol-4-yl)piperidin-1-yl)methyl)-5-methyl-1-(((S)-oxetan-2-yl)methyl)-1H-imidazol-4-yl)benzoic acid] | 107% | 0.898 nM | > 30000 nM | 2% | – |
| Cc1nc(CN2CCC(c3cccc4c3O[C@@](C)(c3ccc(Cl)cc3F)O4)CC2)n(C[C@@H]2CCO2)c1CC(F)C(=O)O (stereo partly drawn) [Compound C-15, 3-(2-((4-((S)-2-(4-chloro-2-fluorophenyl)-2-methylbenzo[d][1,3]dioxol-4-yl)piperidin-1-yl)methyl)-4-methyl-1-(((S)-oxetan-2-yl)methyl)-1H-imidazol-5-yl)-2-fluoropropanoic acid] | 109% | 0.253 nM | > 30000 nM | 41% | – |
| Cc1nc(CN2CCC(c3cccc4c3O[C@@](C)(c3ccc(Cl)cc3F)O4)CC2)n(C[C@@H]2CCO2)c1C#CC(=O)O [Compound C-22, 3-(2-((4-((S)-2-(4-chloro-2-fluorophenyl)-2-methylbenzo[d][1,3]dioxol-4-yl)piperidin-1-yl)methyl)-4-methyl-1-(((S)-oxetan-2-yl)methyl)-1H-imidazol-5-yl)propiolic acid] | 102% | 0.00397 nM | 18 nM | 76% | – |
| C[C@]1(c2ccc(Cl)cc2F)Oc2cccc(C3CCN(Cc4nc(C(F)(F)F)c(-c5nnn[nH]5)n4C[C@@H]4CCO4)CC3)c2O1 [Compound C-24, 4-((S)-2-(4-chloro-2-fluorophenyl)-2-methylbenzo[d][1,3]dioxol-4-yl)-1-((1-(((S)-oxetan-2-yl)methyl)-5-(1H-tetrazol-5-yl)-4-(trifluoromethyl)-1H-imidazol-2-yl)methyl)piperidine] | – | 0.784 nM | > 30000 nM | -3% | 112% |
